Results: PMC9120017, “Inhibition mechanism of the chloride channel TMEM16A by the pore blocker 1PBC” (Nature Communications, 2022)
Read-outs that look alike come from different tables or passages of the source.

Target: T1, mouse TMEM16A mutant N546A (Mus musculus, UniProt Q8BHY3, N546A)
T1 construct: expressed in transfected cells; host or cells: HEK293T
T1 sequence (Q8BHY3 1-960 N546A): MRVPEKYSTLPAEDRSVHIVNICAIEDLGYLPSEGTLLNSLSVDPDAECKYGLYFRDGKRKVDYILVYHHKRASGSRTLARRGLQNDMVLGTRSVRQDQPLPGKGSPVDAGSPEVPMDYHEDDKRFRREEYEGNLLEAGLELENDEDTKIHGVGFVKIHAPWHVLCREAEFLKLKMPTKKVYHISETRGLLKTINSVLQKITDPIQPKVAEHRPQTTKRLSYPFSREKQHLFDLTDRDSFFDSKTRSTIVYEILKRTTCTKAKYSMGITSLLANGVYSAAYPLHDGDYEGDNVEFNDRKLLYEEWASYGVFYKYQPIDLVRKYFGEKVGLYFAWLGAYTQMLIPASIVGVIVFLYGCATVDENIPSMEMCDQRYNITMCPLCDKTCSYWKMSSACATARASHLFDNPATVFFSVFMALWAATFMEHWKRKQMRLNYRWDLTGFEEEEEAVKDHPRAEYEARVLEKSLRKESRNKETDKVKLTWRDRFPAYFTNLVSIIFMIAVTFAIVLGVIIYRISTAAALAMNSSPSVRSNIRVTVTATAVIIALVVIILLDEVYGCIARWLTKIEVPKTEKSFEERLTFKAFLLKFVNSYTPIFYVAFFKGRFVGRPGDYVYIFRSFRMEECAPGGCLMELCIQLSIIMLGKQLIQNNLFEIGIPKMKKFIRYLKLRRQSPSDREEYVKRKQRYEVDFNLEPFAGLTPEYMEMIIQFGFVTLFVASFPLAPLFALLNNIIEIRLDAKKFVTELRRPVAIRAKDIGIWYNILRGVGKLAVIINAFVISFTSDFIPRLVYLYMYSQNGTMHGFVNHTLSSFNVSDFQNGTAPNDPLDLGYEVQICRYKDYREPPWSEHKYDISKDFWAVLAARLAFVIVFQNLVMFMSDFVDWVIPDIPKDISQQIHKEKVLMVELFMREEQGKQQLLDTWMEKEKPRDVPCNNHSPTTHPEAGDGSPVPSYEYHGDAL
Assay: Inside-out patch recording of 1PBC block, mutant N546A
Type: cell-based
Conditions: for remaining activity at 1 µM: 1PBC 1; for remaining activity at 1 µM / remaining activity at 3 µM / remaining activity at 10 µM: read-out: fraction of unblocked current; for remaining activity at 3 µM: 1PBC 3; for remaining activity at 10 µM: 1PBC 10
Procedure: HEK293T cells (ATCC CRL-1573) were maintained in Dulbecco’s modified Eagle’s medium (DMEM; Sigma-Aldrich) supplemented with 10 U ml^−1 penicillin, 0.1 mg ml^−1 streptomycin (Sigma-Aldrich), 2 mM L-glutamine (Sigma-Aldrich), and 10% FBS (Sigma-Aldrich) in a humidified atmosphere containing 5% CO2 at 37 °C. HEK293S GnTI^− cells (ATCC CRL-3022) were maintained in HyClone HyCell TransFx-H medium (GE Healthcare) supplemented with 10 U ml^−1 penicillin, 0.1 mg ml^−1 streptomycin, 4 mM L-glutamine, 0.15% poloxamer 188 (Sigma-Aldrich), and 1% FBS in an atmosphere containing 5% CO2 at 185 rpm at 37 °C. The ac splice variant of mouse TMEM16A (UniProt ID: Q8BHY3), mouse TMEM16B (UniProt ID: Q8CFW1), or mouse TMEM16F (UniProt ID: Q6P9J9) bearing a 3C cleavage site, a Venus YFP, a Myc tag, and a Streptavidin-binding peptide (SBP) downstream of the open reading frame in a modified pcDNA3.1 vector (Invitrogen) were used as described previously[21],[31]. Mutations were introduced using a modified QuikChange method[58] and were verified by sequencing.
HEK293T cells were transfected with 3–4 μg DNA per 6 cm Petri dish using the calcium phosphate co-precipitation method and were used within 24–96 h after transfection. Recordings were performed on inside-out patches excised from HEK293T cells expressing the construct of interest. Patch pipettes were pulled from borosilicate glass capillaries (O.D. 1.5 mm, I.D. 0.86 mm, Sutter Instrument) and were fire-polished with a microforge (Narishige) before use. Pipette resistance was typically 3–8 MΩ when filled with the recording solutions detailed below. Seal resistance was typically 4 GΩ or higher. Voltage-clamp recordings were made using Axopatch 200B, Digidata 1550, and Clampex 10.7 (Molecular Devices). Analog signals were filtered with the in-built 4-pole Bessel filter at 10 kHz and were digitized at 20 kHz. Solution exchange was achieved using a gravity-fed system through a theta glass pipette mounted on an ultra-fast piezo-driven stepper (Siskiyou). […] All recordings were performed at 20 °C.
A symmetrical ionic condition was used throughout. Stock solution with Ca^2+-EGTA contained 150 mM NaCl, 5.99 mM Ca(OH)2, 5 mM EGTA, and 10 mM HEPES at pH 7.40. Stock solution with EGTA contained 150 mM NaCl, 5 mM EGTA, and 10 mM HEPES at pH 7.40. Free Ca^2+ concentrations were adjusted by mixing the stock solutions at the required ratios calculated using the WEBMAXC program (http://web.stanford.edu/~cpatton/webmaxcS.htm). Patch pipettes were filled with the stock solution with Ca^2+-EGTA, which has a free Ca^2+ concentration of 1 mM. 1PBC (ChemBridge) stock was reconstituted in anhydrous DMSO (Sigma-Aldrich) at 100 mM and stored at −20 °C. Working solutions with 1PBC were prepared by serial dilution. Unless otherwise stated, experiments were performed at a saturating Ca^2+ concentration as shown in Supplementary Table 1 and the primary data were corrected for current rundown as described previously[21],[25].
Concentration-response relations, obtained from the ratio of the I-V plots before and after the application of the blocker, were fitted to the Hill equation,1 I/Imax=1/1+IC50/[blocker]^h where I/Imax is the normalized current responses, IC50 defines the concentration at which inhibition is at its half-maximum, and h is the Hill coefficient.

IC50 (0 mV, 2 µM Ca2+): 594 nM
remaining activity at 1 µM (0 mV): 35.3%
remaining activity at 1 µM (20 mV): 28.4%
remaining activity at 1 µM (40 mV): 22%
remaining activity at 1 µM (60 mV): 19.8%
remaining activity at 1 µM (80 mV): 18.3%
remaining activity at 1 µM (100 mV): 19.3%
remaining activity at 1 µM (120 mV): 20.4%
remaining activity at 1 µM (140 mV): 24.4%
remaining activity at 1 µM (-20 mV): 42.1%
remaining activity at 1 µM (-40 mV): 47.5%
remaining activity at 1 µM (-60 mV): 55.1%
remaining activity at 1 µM (-80 mV): 60.7%
remaining activity at 1 µM (-100 mV): 65.9%
remaining activity at 1 µM (-120 mV): 69.4%
remaining activity at 1 µM (-140 mV): 71.9%
remaining activity at 3 µM (0 mV): 16.8%
remaining activity at 3 µM (20 mV): 12.7%
remaining activity at 3 µM (40 mV): 11%
remaining activity at 3 µM (60 mV): 8.55%
remaining activity at 3 µM (80 mV): 9.38%
remaining activity at 3 µM (100 mV): 9.83%
remaining activity at 3 µM (120 mV): 10.5%
remaining activity at 3 µM (140 mV): 17.6%
remaining activity at 3 µM (-20 mV): 20.8%
remaining activity at 3 µM (-40 mV): 25.6%
remaining activity at 3 µM (-60 mV): 31.9%
remaining activity at 3 µM (-80 mV): 36.9%
remaining activity at 3 µM (-100 mV): 42.7%
remaining activity at 3 µM (-120 mV): 48.5%
remaining activity at 3 µM (-140 mV): 51.2%
remaining activity at 10 µM (0 mV): 5.97%
remaining activity at 10 µM (20 mV): 5.12%
remaining activity at 10 µM (40 mV): 3.23%
remaining activity at 10 µM (60 mV): 3.5%
remaining activity at 10 µM (80 mV): 3.36%
remaining activity at 10 µM (100 mV): 5.03%
remaining activity at 10 µM (120 mV): 4.78%
remaining activity at 10 µM (140 mV): 10.2%
remaining activity at 10 µM (-20 mV): 6.81%
remaining activity at 10 µM (-40 mV): 10.2%
remaining activity at 10 µM (-60 mV): 13.2%
remaining activity at 10 µM (-80 mV): 16.4%
remaining activity at 10 µM (-100 mV): 19.7%
remaining activity at 10 µM (-120 mV): 24.7%
remaining activity at 10 µM (-140 mV): 27.4%
IC50 (20 mV, 2 µM Ca2+): 431 nM
IC50 (40 mV, 2 µM Ca2+): 326 nM
IC50 (60 mV, 2 µM Ca2+): 269 nM
log-fold IC50 (change of mutant vs WT) (80 mV): -0.9263
IC50 (80 mV, 2 µM Ca2+): 239 nM
IC50 (100 mV, 2 µM Ca2+): 233 nM
IC50 (120 mV, 2 µM Ca2+): 238 nM
IC50 (140 mV, 2 µM Ca2+): 315 nM
IC50 (-20 mV, 2 µM Ca2+): 805 nM
IC50 (-40 mV, 2 µM Ca2+): 1020 nM
IC50 (-60 mV, 2 µM Ca2+): 1360 nM
IC50 (-80 mV, 2 µM Ca2+): 1720 nM
IC50 (-100 mV, 2 µM Ca2+): 2170 nM
IC50 (-120 mV, 2 µM Ca2+): 2750 nM
IC50 (-140 mV, 2 µM Ca2+): 3100 nM
IC50 (N546A, V 0 mV): 594 nM
IC50 (N546A, V 20 mV): 431 nM
IC50 (N546A, V 40 mV): 326 nM
IC50 (N546A, V 60 mV): 269 nM
IC50 (N546A, V 80 mV): 239 nM
IC50 (N546A, V 100 mV): 233 nM
IC50 (N546A, V 120 mV): 238 nM
IC50 (N546A, V 140 mV): 315 nM
IC50 (N546A, V -20 mV): 805 nM
IC50 (N546A, V -40 mV): 1020 nM
IC50 (N546A, V -60 mV): 1360 nM
IC50 (N546A, V -80 mV): 1720 nM
IC50 (N546A, V -100 mV): 2170 nM
IC50 (N546A, V -120 mV): 2750 nM
IC50 (N546A, V -140 mV): 3100 nM
Structure (SMILES): N#Cc1c(C(F)(F)F)cc(O)n2c1nc1ccccc12 [1PBC]
